target: interaction between p53 and MDM2 proteins (Homo sapiens, UniProt Q00987); test: HTRF assay of inhibition of the p53-MDM2 interaction (GST-MDM2 / biotinylated p53 peptide); type: binding; conditions: recombinant GST-tagged MDM2 and biotinylated p53 peptide, bsa:0.02%
Sequence (Q00987 whole entry): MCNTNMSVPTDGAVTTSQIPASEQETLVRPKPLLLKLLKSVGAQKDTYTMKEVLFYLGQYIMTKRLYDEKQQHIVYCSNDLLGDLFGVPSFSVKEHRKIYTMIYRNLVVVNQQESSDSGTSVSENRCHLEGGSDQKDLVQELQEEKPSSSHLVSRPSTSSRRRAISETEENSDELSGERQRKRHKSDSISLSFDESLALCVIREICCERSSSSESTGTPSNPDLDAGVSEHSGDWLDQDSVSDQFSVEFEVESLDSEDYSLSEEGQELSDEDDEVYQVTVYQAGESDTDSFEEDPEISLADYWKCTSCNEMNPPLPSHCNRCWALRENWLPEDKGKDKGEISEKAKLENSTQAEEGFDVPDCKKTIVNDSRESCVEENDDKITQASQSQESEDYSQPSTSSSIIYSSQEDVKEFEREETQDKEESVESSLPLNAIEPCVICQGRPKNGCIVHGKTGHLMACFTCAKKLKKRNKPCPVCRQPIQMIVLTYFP

Structure (SMILES)	IC50 [nM]
COc1cc(C#N)ccc1NC(=O)[C@@H]1N[C@@H](CC(C)(C)C)[C@@]2(C(=O)Nc3cc(Cl)c(F)cc32)[C@H]1c1cccc(Cl)c1F (racemic) [Example 112, rac-(2′S,3′R,4′S,5′R)-6-chloro-4′-(3-chloro-2-fluoro-phenyl)-2′-(2,2-dimethyl-propyl)-5-fluoro-2-oxo-1,2-dihydro-spiro[indole-3,3′-pyrrolidine]-5′-carboxylic acid (4-cyano-2-methoxy-phenyl)-amide]	15
COc1cc(C(N)=O)ccc1NC(=O)[C@@H]1N[C@@H](CC(C)(C)C)[C@@]2(C(=O)Nc3cc(Cl)c(F)cc32)[C@H]1c1cccc(Cl)c1F (racemic) [Example 113, rac-(2′S,3′R,4′S,5′R)-6-chloro-4′-(3-chloro-2-fluoro-phenyl)-2′-(2,2-dimethyl-propyl)-5-fluoro-2-oxo-1,2-dihydro-spiro[indole-3,3′-pyrrolidine]-5′-carboxylic acid (4-carbamoyl-2-methoxy-phenyl)-amide]	9
COc1cc(C#N)ccc1NC(=O)[C@@H]1N[C@@H](CC(C)(C)C)[C@@]2(C(=O)Nc3cc(Cl)ccc32)[C@H]1c1cc(F)cc(Cl)c1 (racemic) [Example 114, rac-(2′S,3′R,4′R,5′R)-6-chloro-4′-(3-chloro-5-fluoro-phenyl)-2′-(2,2-dimethyl-propyl)-2-oxo-1,2-dihydro-spiro[indole-3,3′-pyrrolidine]-5′-carboxylic acid (4-cyano-2-methoxy-phenyl)-amide]	12
COc1cc(C(N)=O)ccc1NC(=O)[C@@H]1N[C@@H](CC(C)(C)C)[C@@]2(C(=O)Nc3cc(Cl)ccc32)[C@H]1c1cc(F)cc(Cl)c1 (racemic) [Example 115, rac-(2′S,3′R,4′R,5′R)-6-chloro-4′-(3-chloro-5-fluoro-phenyl)-2′-(2,2-dimethyl-propyl)-2-oxo-1,2-dihydro-spiro[indole-3,3′-pyrrolidine]-5′-carboxylic acid (4-carbamoyl-2-methoxy-phenyl)-amide]	6
COc1cc(C#N)ccc1NC(=O)[C@@H]1N[C@@H](CC(C)(C)C)[C@@]2(C(=O)Nc3cc(Cl)ccc32)[C@H]1c1cccc(Br)c1F (racemic) [Example 116, rac-(2′S,3′R,4′S,5′R)-4′-(3-bromo-2-fluoro-phenyl)-6-chloro-2′-(2,2-dimethyl-propyl)-2-oxo-1,2-dihydro-spiro[indole-3,3′-pyrrolidine]-5′-carboxylic acid (4-cyano-2-methoxy-phenyl)-amide]	15
COc1cc(C(N)=O)ccc1NC(=O)[C@@H]1N[C@@H](CC(C)(C)C)[C@@]2(C(=O)Nc3cc(Cl)ccc32)[C@H]1c1cccc(Br)c1F (racemic) [Example 117, rac-(2′S,3′R,4′S,5′R)-4′-(3-bromo-2-fluoro-phenyl)-6-chloro-2′-(2,2-dimethyl-propyl)-2-oxo-1,2-dihydro-spiro[indole-3,3′-pyrrolidine]-5′-carboxylic acid (4-carbamoyl-2-methoxy-phenyl)-amide]	7
COc1cc(C#N)ccc1NC(=O)[C@@H]1N[C@@H](CC(C)(C)C)[C@@]2(C(=O)Nc3cc(Br)ccc32)[C@H]1c1cccc(Cl)c1F (racemic) [Example 118, rac-(2′S,3′R,4′S,5′R)-6-bromo-4′-(3-chloro-2-fluoro-phenyl)-2′-(2,2-dimethyl-propyl)-2-oxo-1,2-dihydro-spiro[indole-3,3′-pyrrolidine]-5′-carboxylic acid (4-cyano-2-methoxy-phenyl)-amide]	11
COc1cc(C(N)=O)ccc1NC(=O)[C@@H]1N[C@@H](CC(C)(C)C)[C@@]2(C(=O)Nc3cc(Br)ccc32)[C@H]1c1cccc(Cl)c1F (racemic) [Example 119, rac-(2′S,3′R,4′S,5′R)-6-bromo-4′-(3-chloro-2-fluoro-phenyl)-2′-(2,2-dimethyl-propyl)-2-oxo-1,2-dihydro-spiro[indole-3,3′-pyrrolidine]-5′-carboxylic acid (4-carbamoyl-2-methoxy-phenyl)-amide]	7
COC(=O)c1ccc(NC(=O)[C@@H]2N[C@@H](CC(C)(C)C)[C@@]3(C(=O)Nc4cc(Br)ccc43)[C@H]2c2cccc(Cl)c2F)c(OC)c1 (racemic) [Example 122, rac-4-{[(2′S,3′R,4′S,5′R)-6-bromo-4′-(3-chloro-2-fluoro-phenyl)-2′-(2,2-dimethyl-propyl)-2-oxo-1,2-dihydro-spiro[indole-3,3′-pyrrolidine]-5′-carbonyl]-amino}-3-methoxy-benzoic acid methyl ester]	13
COc1cc(C(=O)O)ccc1NC(=O)[C@@H]1N[C@@H](CC(C)(C)C)[C@@]2(C(=O)Nc3cc(Br)ccc32)[C@H]1c1cccc(Cl)c1F (racemic) [Example 123, rac-4-{[(2′S,3′R,4′S,5′R)-6-bromo-4′-(3-chloro-2-fluoro-phenyl)-2′-(2,2-dimethyl-propyl)-2-oxo-1,2-dihydro-spiro[indole-3,3′-pyrrolidine]-5′-carbonyl]-amino}-3-methoxy-benzoic acid]	6
COC(=O)c1ccc(NC(=O)[C@@H]2N[C@@H](CC(C)(C)C)[C@@]3(C(=O)Nc4cc(Cl)ccc43)[C@H]2c2cc(F)cc(Cl)c2)c(OC)c1 (racemic) [Example 124, rac-4-{[(2′S,3′R,4′R,5′R)-6-chloro-4′-(3-chloro-5-fluoro-phenyl)-2′-(2,2-dimethyl-propyl)-2-oxo-1,2-dihydro-spiro[indole-3,3′-pyrrolidine]-5′-carbonyl]-amino}-3-methoxy-benzoic acid methyl ester]	15
COc1cc(C(=O)O)ccc1NC(=O)[C@@H]1N[C@@H](CC(C)(C)C)[C@@]2(C(=O)Nc3cc(Cl)ccc32)[C@H]1c1cc(F)cc(Cl)c1 (racemic) [Example 125, rac-4-{[(2′S,3′R,4′R,5′R)-6-chloro-4′-(3-chloro-5-fluoro-phenyl)-2′-(2,2-dimethyl-propyl)-2-oxo-1,2-dihydro-spiro[indole-3,3′-pyrrolidine]-5′-carbonyl]-amino}-3-methoxy-benzoic acid]	7
COC(=O)c1ccc(NC(=O)[C@@H]2N[C@@H](CC(C)(C)C)[C@@]3(C(=O)Nc4cc(Cl)ccc43)[C@H]2c2ccc(F)c(Cl)c2)c(OC)c1 (racemic) [Example 126, rac-4-{[(2′S,3′R,4′R,5′R)-6-chloro-4′-(3-chloro-4-fluoro-phenyl)-2′-(2,2-dimethyl-propyl)-2-oxo-1,2-dihydro-spiro[indole-3,3′-pyrrolidine]-5′-carbonyl]amino}-3-methoxy-benzoic acid methyl ester]	29
CCOc1cc(C(=O)OC)ccc1NC(=O)[C@@H]1N[C@@H](CC(C)(C)C)[C@@]2(C(=O)Nc3cc(Cl)ccc32)[C@H]1c1cccc(Cl)c1F (racemic) [Example 129, rac-4-{[(2′S,3′R,4′S,5′R)-6-chloro-4′-(3-chloro-2-fluoro-phenyl)-2′-(2,2-dimethyl-propyl)-2-oxo-1,2-dihydro-spiro[indole-3,3′-pyrrolidine]-5′-carbonyl]-amino}-3-ethoxy-benzoic acid methyl ester]	10
CCOc1cc(C(=O)O)ccc1NC(=O)[C@@H]1N[C@@H](CC(C)(C)C)[C@@]2(C(=O)Nc3cc(Cl)ccc32)[C@H]1c1cccc(Cl)c1F (racemic) [Example 130, rac-4-{[(2′S,3′R,4′S,5′R)-6-chloro-4′-(3-chloro-2-fluoro-phenyl)-2′-(2,2-dimethyl-propyl)-2-oxo-1,2-dihydro-spiro[indole-3,3′-pyrrolidine]-5′-carbonyl]amino}-3-ethoxy-benzoic acid]	11
CCOc1cc(C(N)=O)ccc1NC(=O)[C@@H]1N[C@@H](CC(C)(C)C)[C@@]2(C(=O)Nc3cc(Cl)ccc32)[C@H]1c1cccc(Cl)c1F (racemic) [Example 131, rac-(2′S,3′R,4′S,5′R)-6-chloro-4′-(3-chloro-2-fluoro-phenyl)-2′-(2,2-dimethyl-propyl)-2-oxo-1,2-dihydro-spiro[indole-3,3′-pyrrolidine]-5′-carboxylic acid (4-carbamoyl-2-ethoxy-phenyl)-amide]	14
COc1cc(S(=O)(=O)N2CCOCC2)ccc1NC(=O)[C@@H]1N[C@@H](CC(C)(C)C)[C@@]2(C(=O)Nc3cc(Cl)ccc32)[C@H]1c1cccc(Cl)c1F (racemic) [Example 138, rac-(2′S,3′R,4′S,5′R)-6-chloro-4′-(3-chloro-2-fluoro-phenyl)-2′-(2,2-dimethyl-propyl)-2-oxo-1,2-dihydro-spiro[indole-3,3′-pyrrolidine]-5′-carboxylic acid [2-methoxy-4-(morpholine-4-sulfonyl)-phenyl]-amide]	13
COc1cc(N2CCOCC2)ccc1NC(=O)[C@@H]1N[C@@H](CC(C)(C)C)[C@@]2(C(=O)Nc3cc(Cl)ccc32)[C@H]1c1cccc(Cl)c1F (racemic) [Example 143, rac-(2′S,3′R,4′S,5′R)-6-chloro-4′-(3-chloro-2-fluoro-phenyl)-2′-(2,2-dimethyl-propyl)-2-oxo-1,2-dihydro-spiro[indole-3,3′-pyrrolidine]-5′-carboxylic acid (2-methoxy-4-morpholin-4-yl-phenyl)-amide]	15
COc1cc(N2CC(C)OC(C)C2)ccc1NC(=O)[C@@H]1N[C@@H](CC(C)(C)C)[C@@]2(C(=O)Nc3cc(Cl)ccc32)[C@H]1c1cccc(Cl)c1F (mixture of isomers) [Example 144, rac-(2′S,3′R,4′S,5′R)-6-chloro-4′-(3-chloro-2-fluoro-phenyl)-2′-(2,2-dimethyl-propyl)-2-oxo-1,2-dihydro-spiro[indole-3,3′-pyrrolidine]-5′-carboxylic acid [4-(2,6-dimethyl-morpholin-4-yl)-2-methoxy-phenyl]-amide]	19
CC(C)(C)C[C@@H]1N[C@@H](C(=O)Nc2ccc(C(N)=O)cc2OC(F)(F)F)[C@H](c2cccc(Cl)c2F)[C@]12C(=O)Nc1cc(Cl)ccc12 (racemic) [Example 146, rac-(2′S,3′R,4′S,5′R)-6-chloro-4′-(3-chloro-2-fluoro-phenyl)-2′-(2,2-dimethyl-propyl)-2-oxo-1,2-dihydro-spiro[indole-3,3′-pyrrolidine]-5′-carboxylic acid (4-carbamoyl-2-trifluoromethoxy-phenyl)-amide]	14

— patent publication US8088815B2, “Spiroindolinone pyrrolidines” (Hoffman-La Roche Inc., priority 2009, dated 2012)
